Source: patent publication US11905231B1, “Solid forms, salts and polymorphs of anti-fibrotic compounds” (Certa Therapeutics Pty Ltd, priority 2023, dated 2024)
Values after ≈ are worked out from the molar mass of the structure shown. Read-outs that look alike come from different tables or passages of the source.

Experiments:
[1] = Dynamic Vapor Sorption (DVS) hygroscopicity; conditions: at 80% RH, 25° C., measured during 0% RH to 95% RH increase
Excerpt: The change in water content is recited as a % change in mass of the starting sample and all such water sorption (DVS) values recited herein will be understood to explicitly include numerical values within a +/−0.2% variance.
The humidity is held constant at 30% RH until the mass change of the sample reaches equilibrium, as determined by the rate of change of weight being 0.01%/minute or less. The humidity is then changed to the next step value and the consequent mass change measured, and so on.
The hygroscopicity values recited herein refer to total water gain since the start of the experiment only and so may not necessarily be equivalent to the actual total water content of the sample.

[2] = Oral pharmacokinetic study in Sprague-Dawley rats; conditions: rat; for F (fraction absorbed, bioavailability): based on AUCInf
Procedure: Bioavailability is determined by the equation AUC=F·D/CLT, wherein AUC is the area under the plot of plasma concentration, F is the absolute bioavailability, D is the dose, and CLT is the total clearance.
The rats received a single oral dose of 20 mg/kg body weight (b.w.). The doses were prepared as a 2.0 mg/mL suspension in a vehicle of 20 mM Na2HPO4 buffer containing 5% (v/v) DMSO, 0.4% (v/v) 1M NaOH and 0.4% (v/v) Tween 80 and a dose volume of 10 mL/kg b.w.
Pharmacokinetic analysis was performed on the average plasma concentration for each time point.

[3] = Thermogravimetric Analysis (TGA) weight loss; format: physicochemical; conditions: for Total weight loss by TGA: from r.t. to 350° C. (or to decomposition if lower)
physchem = conditions: 37 °C, thermodynamic from solid
Procedure: The term “FaSSIF media” refers to Fasted State Simulated Intestinal Fluid media prepared using FaSSIF powder and buffer concentrate obtained from the commercial source Biorelevant (London, UK, biorelevant.com). The FaSSIF powder contains sodium taurocholate, lecithin, sodium chloride, monobasic sodium phosphate and sodium hydroxide. The FaSSIF media is prepared as described at https://biorelevant.com/learning_center/what-is-fassif/. Briefly the pH6.5 buffer containing 0.42 g of NaOH, 3.95 g of NaH2PO4·H2O and 6.19 g of NaCl was dissolved in 0.9 L of purified water and the pH of the solution was adjusted to 6.5 using sodium hydroxide 1N or hydrochloric acid 1N and made up to volume (1 L) with purified water at room temperature. Dissolve 2.24 g of the FaSSIF powder in 0.5 L of the pH6.5 buffer, stirring until the powder is completely dissolved, and then make up to volume (1 L) with buffer at room temperature.
The samples were stirred using a magnetic stirrer at 37° C. […] The samples were filtered via centrifugation (12,000 rpm, 5 min). The supernatant was diluted (2×) with HPLC grade solvent and analyzed by HPLC.
HPLC gradient was as follows:
The pH 1.2, pH 4.5, and pH 6.8 media were prepared as standard aqueous buffered solutions following USP <39>.
As used herein, the term “FaSSIF media” means Fasted Stated Simulated Intestinal Fluid media prepared according to the method known in the art.

[4] = single oral dose 20 mg/kg, 0.5 h post dose
[5] = single oral dose 20 mg/kg, 1 h post dose
[6] = single oral dose 20 mg/kg, 2 h post dose
[7] = single oral dose 20 mg/kg, 4 h post dose
[8] = single oral dose 20 mg/kg, 8 h post dose
[9] = single oral dose 20 mg/kg, 24 h post dose
[10] = single oral dose 20 mg/kg, plasma
[11] = single oral dose 20 mg/kg, plasma, mean
[12] = single oral dose 20 mg/kg, plasma, extrapolated area under the curve
[13] = FaSSIF (pH 7.5), pH 7.5, fassif
[14] = FeSSIF (pH 7.8), pH 7.8, fessif
[15] = pH 1.2 aqueous buffer, pH 1.2, simulated gastric fluid
[16] = Sprague-Dawley, in vivo, po, 20 mg/kg

## C#CCOc1ccc(/C=C/C(=O)Nc2ccccc2C(=O)O)cc1OC.NC(CO)(CO)CO [Tris salt]
pH 1.2
  1 h Solubility: 1 µg/mL
  24 h Solubility: 4 µg/mL
pH 4.5
  1 h Solubility: <1 µg/mL
  24 h Solubility: 2 µg/mL
pH 6.8
  1 h Solubility: 88 µg/mL
  24 h Solubility: 67 µg/mL
pH 7.5
  1 h Solubility: >5030 µg/mL
  24 h Solubility: 4641 µg/mL
pH 7.8
  1 h Solubility: >5100 µg/mL
  24 h Solubility: 4212 µg/mL
[1]
  Hygroscopicity by DVS: 1.61%
[1]; listed as tris(hydroxymethyl)aminomethane (Tris)
  Hygroscopicity by DVS: 1.61%
[2]; [4]
  Mean concentration (plasma): 21300 ng/mL
[2]; [5]
  Mean concentration (plasma): 36833 ng/mL
[2]; [6]
  Mean concentration (plasma): 31067 ng/mL
[2]; [7]
  Mean concentration (plasma): 14467 ng/mL
[2]; [8]
  Mean concentration (plasma): 11317 ng/mL
[2]; [9]
  Mean concentration (plasma): 650 ng/mL
[2]; [10]
  AUCExtr: 1.49%
[2]; [11]
  AUClast: 246.642 µg·h/mL
  Cmax: 37367 ng/mL
  t1/2: 4.02 h
  tmax: 1.33 h
[2]; [12]
  AUCInf: 250.596 µg·h/mL
[2]; single oral dose 20 mg/kg
  F (fraction absorbed, bioavailability): 51%
[3]; from 0° C. to 120° C.
  Weight loss by TGA: 0.65% from 0 °C to
[3]; from 120° C. to 150° C.
  Weight loss by TGA: 0.20% from 120 °C to
[3]; from r.t. to 120° C.
  Weight loss by TGA: 0.65% from r.t. to
[3]
  Total weight loss by TGA: 0.85% total weight
[3]; when heated from about 25° C. to about 120° C.
  Weight loss (TGA): 0.65%

## C#CCOc1ccc(/C=C/C(=O)Nc2ccccc2C(=O)[O-])cc1OC.[K+] [Potassium salt]
FaSSIF (pH 7.5), 37° C., 1 h
  1 h Solubility: >5140 µg/mL
FaSSIF (pH 7.5), 37° C., 24 h
  24 h Solubility: >5140 µg/mL
FaSSIF, 37° C., 1 h
  1 h Solubility: 218 µg/mL
FaSSIF, 37° C., 24 h
  24 h Solubility: 211 µg/mL
FeSSIF (pH 7.8), 37° C., 1 h
  1 h Solubility: >5140 µg/mL
FeSSIF (pH 7.8), 37° C., 24 h
  24 h Solubility: >5140 µg/mL
FeSSIF, 37° C., 1 h
  1 h Solubility: 23 µg/mL
FeSSIF, 37° C., 24 h
  24 h Solubility: 25 µg/mL
pH 1.2 medium, 37° C., 1 h
  1 h Solubility: 18 µg/mL
pH 1.2 medium, 37° C., 24 h
  24 h Solubility: 7 µg/mL
pH 4.5 medium, 37° C., 1 h
  1 h Solubility: 30 µg/mL
pH 4.5 medium, 37° C., 24 h
  24 h Solubility: 6 µg/mL
pH 6.8 medium, 37° C., 1 h
  1 h Solubility: 111 µg/mL
pH 6.8 medium, 37° C., 24 h
  24 h Solubility: 78 µg/mL
[1]
  Hygroscopicity by DVS: 6.05%
[2]; [4]
  Mean concentration (plasma): 24600 ng/mL
[2]; [5]
  Mean concentration (plasma): 34467 ng/mL
[2]; [6]
  Mean concentration (plasma): 27200 ng/mL
[2]; [7]
  Mean concentration (plasma): 17000 ng/mL
[2]; [8]
  Mean concentration (plasma): 10850 ng/mL
[2]; [9]
  Mean concentration (plasma): 687 ng/mL
[2]; [10]
  AUCExtr: 1.68%
[2]; [11]
  AUClast: 244.45 µg·h/mL
  Cmax: 34733 ng/mL
  t1/2: 4.21 h
  tmax: 1.33 h
[2]; [12]
  AUCInf: 248.674 µg·h/mL
[2]; single oral dose 20 mg/kg
  F (fraction absorbed, bioavailability): 51%
[3]; from 25° C. to 57° C.
  Weight loss by TGA: 2.02% from 25 °C to
[3]; from 57° C. to 140° C.
  Weight loss by TGA: 4.40% from 57 °C to
[3]; from r.t. to 120° C.
  Weight loss by TGA: 5.34% from r.t. to
[3]
  Total weight loss by TGA: 6.42% total weight

## C#CCOc1ccc(/C=C/C(=O)Nc2ccccc2C(=O)O)cc1OC [Free form]
physchem; [13]
  solubility at 1 h: 1340 µg/mL (≈ 3810 µM)
  solubility at 24 h: 1500 µg/mL (≈ 4270 µM)
physchem; FaSSIF, pH 6.5, fassif
  solubility at 1 h: 312 µg/mL (≈ 888 µM)
  solubility at 24 h: 103 µg/mL (≈ 293 µM)
physchem; [14]
  solubility at 1 h: 806 µg/mL (≈ 2290 µM)
  solubility at 24 h: 400 µg/mL (≈ 1140 µM)
physchem; FeSSIF, pH 5, fessif
  solubility at 1 h: 39 µg/mL (≈ 111 µM)
  solubility at 24 h: 18 µg/mL (≈ 51.2 µM)
physchem; [15]
  solubility at 1 h: 10 µg/mL (≈ 28.5 µM)
  solubility at 24 h: 4 µg/mL (≈ 11.4 µM)
physchem; pH 4.5 aqueous buffer
  solubility at 1 h: 35 µg/mL (≈ 99.6 µM)
  solubility at 24 h: 6 µg/mL (≈ 17.1 µM)
physchem; pH 6.8 aqueous buffer
  solubility at 1 h: 394 µg/mL (≈ 1120 µM)
  solubility at 24 h: 51 µg/mL (≈ 145 µM)
[2]; [16]
  AUCExtr: 2.10%
  AUCInf: 170.145 µg·h/mL
  AUClast: 166.522 µg·h/mL
  bioavailability: 35%
  half-life: 4.23 h
  tmax: 3.67 h
[2]; Sprague-Dawley, in vivo, po, 20 mg/kg, 0.5 h
  Mean concentration (plasma): 9947 ng/mL
[2]; Sprague-Dawley, in vivo, po, 20 mg/kg, 1 h
  Mean concentration (plasma): 16427 ng/mL
[2]; Sprague-Dawley, in vivo, po, 20 mg/kg, 2 h
  Mean concentration (plasma): 13217 ng/mL
[2]; Sprague-Dawley, in vivo, po, 20 mg/kg, 4 h
  Mean concentration (plasma): 11693 ng/mL
[2]; Sprague-Dawley, in vivo, po, 20 mg/kg, 8 h
  Mean concentration (plasma): 8990 ng/mL
[2]; Sprague-Dawley, in vivo, po, 20 mg/kg, 24 h
  Mean concentration (plasma): 586 ng/mL
[3]; from r.t. to 120° C.
  Weight loss by TGA: 1.83% from r.t. to
[3]
  Total weight loss by TGA: 1.83% total weight
